The supplement of paper PMC10307832

Legend:
Assay in all cases: relative viability (nuclei count vs DMSO), 5 days (fraction); higher = more cells survive
IPA-3 + Luminespib = compound: C1=CC=C2C(=C1)C=CC(=C2SSC3=C(C=CC4=CC=CC=C43)O)O [IPA-3] + CCNC(=O)c1noc(-c2cc(C(C)C)c(O)cc2O)c1-c1ccc(CN2CCOCC2)cc1 [Luminespib] (partner 0.01 µM)
Method in brief: (§1)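 Lung cancer cell lines were seeded in 1536-well plates and dosed by pin tool the next day, with either a single drug or a fixed anchor-drug dose combined with five library-drug doses (not always all listed) spaced in √10 steps. Five days later, one step fixed the cells and stained their nuclei (final 0.05% Triton X-100, 1% formaldehyde, 1 ug/ml Hoechst), and nuclei were counted on 4× images. Relative viability is the nuclei count in treated wells divided by the count in vehicle wells, and each value is the median of duplicate plates.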

IPA-3 + Lapatinib = compound: C1=CC=C2C(=C1)C=CC(=C2SSC3=C(C=CC4=CC=CC=C43)O)O [IPA-3] + CS(=O)(=O)CCNCc1ccc(-c2ccc3ncnc(Nc4ccc(OCc5cccc(F)c5)c(Cl)c4)c3c2)o1 [Lapatinib] (partner 2 µM)
Method in brief: as §1

IPA-3 + AZD7762 = compound: C1=CC=C2C(=C1)C=CC(=C2SSC3=C(C=CC4=CC=CC=C43)O)O [IPA-3] + NC(=O)Nc1cc(-c2cccc(F)c2)sc1C(=O)N[C@H]1CCCNC1 [AZD7762] (partner 0.2 µM)
Method in brief: as §1

RAF265 + Pictilisib = compound: Cn1c(Nc2ccc(C(F)(F)F)cc2)nc2cc(Oc3ccnc(-c4ncc(C(F)(F)F)[nH]4)c3)ccc21 [RAF265] + CS(=O)(=O)N1CCN(Cc2cc3nc(-c4cccc5[nH]ncc45)nc(N4CCOCC4)c3s2)CC1 [Pictilisib] (partner 1 µM)
Method in brief: as §1

Cell Line	relative viability (IPA-3 + Luminespib; first compound 0.2 µM)	relative viability (IPA-3 + Luminespib; first compound 0.6325 µM)	relative viability (IPA-3 + Luminespib; first compound 2 µM)	relative viability (IPA-3 + Luminespib; first compound 6.325 µM)	relative viability (IPA-3 + Luminespib; first compound 20 µM)	relative viability (IPA-3 + Lapatinib; first compound 0.2 µM)	relative viability (IPA-3 + Lapatinib; first compound 0.6325 µM)	relative viability (IPA-3 + Lapatinib; first compound 2 µM)	relative viability (IPA-3 + Lapatinib; first compound 6.325 µM)	relative viability (IPA-3 + Lapatinib; first compound 20 µM)	relative viability (IPA-3 + AZD7762; first compound 0.2 µM)	relative viability (IPA-3 + AZD7762; first compound 0.6325 µM)	relative viability (IPA-3 + AZD7762; first compound 2 µM)	relative viability (IPA-3 + AZD7762; first compound 6.325 µM)	relative viability (IPA-3 + AZD7762; first compound 20 µM)	relative viability (RAF265 + Pictilisib; first compound 0.01 µM)	relative viability (RAF265 + Pictilisib; first compound 0.03162 µM)	relative viability (RAF265 + Pictilisib; first compound 0.1 µM)	relative viability (RAF265 + Pictilisib; first compound 0.3162 µM)	relative viability (RAF265 + Pictilisib; first compound 1 µM)
NCI-H1437	1.15	0.951	1.1	1.03	1.24	1.34	0.774	0.802	0.726	0.825	1.2	1.08	1.18	1.06	1.19	0.613	0.428	0.455	0.475	0.274
EKVX	0.826	0.781	0.867	0.938	1.01	0.198	0.201	0.204	0.225	0.217	0.858	0.708	0.72	0.654	0.744	0.425	0.414	0.429	0.242	0.334
NCI-H1651	1.04	0.768	0.853	0.959	1.02	1.18	–	0.863	0.852	0.931	0.573	0.473	0.411	0.554	0.499	0.523	0.539	0.433	0.397	0.463
HCC-15	0.625	0.209	0.253	0.514	0.417	1.08	0.77	0.806	0.868	0.958	1.48	1.29	1.18	1.18	1.37	0.805	0.625	0.645	0.49	0.333
NCI-H23	0.221	0.224	0.201	0.227	0.204	1.16	1.04	1.24	1.09	0.735	0.207	0.274	0.261	0.32	0.363	0.545	0.429	0.393	0.245	0.206
NCI-H1792	0.475	0.529	0.418	0.38	0.615	1.07	0.888	0.94	0.894	1.01	0.97	0.519	–	0.604	0.572	0.277	0.279	0.223	0.166	0.0856
NCI-H596	1.17	0.955	1.04	0.637	0.662	1.09	1.09	1.13	1.03	1.35	1.1	1.07	1.11	1.21	1.3	0.417	0.338	0.372	0.381	0.274
NCI-H460	0.0346	0.0286	0.0329	0.0351	0.0331	–	0.807	1.1	0.889	1.19	0.756	0.704	0.632	0.7	0.634	0.5	0.455	0.403	0.201	0.179
NCI-H2085	0.475	0.411	0.502	0.432	0.5	0.931	0.723	0.741	0.712	0.825	1.11	0.956	1.02	0.893	1.21	0.407	0.478	0.502	0.437	0.368
PC-14	0.165	0.151	0.189	0.161	0.142	0.419	0.331	0.328	0.328	0.407	0.402	0.362	0.431	0.328	0.407	0.737	–	0.733	–	0.312
HOP-62	1.12	0.919	0.963	0.855	1.11	1.2	0.935	0.918	1.13	1.16	0.787	0.828	0.657	0.606	0.661	0.641	–	0.726	0.426	0.179
NCI-H2087	0.169	0.14	0.183	0.197	0.167	0.832	0.987	0.982	1.06	0.811	1.52	1.29	1.43	1.07	1.35	0.96	0.907	0.884	0.46	0.372
NCI-H1793	0.192	0.381	0.14	0.462	0.16	0.834	0.539	0.909	0.776	0.702	0.56	0.526	0.424	0.641	0.527	0.296	0.267	0.447	0.216	0.179
PC-3 [JPC-3]	0.742	0.666	0.719	0.641	0.801	0.494	0.467	0.422	0.504	0.457	0.926	1.34	0.916	0.741	0.807	0.686	0.676	0.727	0.333	0.417
H3255	1.03	0.757	0.782	0.871	0.889	0.213	0.277	0.184	0.2	0.23	1.03	0.919	0.865	0.912	1	0.494	0.512	0.522	0.132	0.336
EMC-BAC-2	1.13	1.04	1.2	1.2	1.21	0.905	0.92	0.88	0.95	0.992	1.15	1.17	1.12	1.08	1.16	0.494	0.513	0.496	0.386	0.228
